Reference: ChEMBL document CHEMBL1149501, “Selective COX-2 inhibitors. Part 1: synthesis and biological evaluation of phenylazobenzenesulfonamides” (Bioorg Med Chem Lett, 2006)

Each compound was assayed against Prostaglandin G/H synthase 1 (Homo sapiens, UniProt P23219) (assay: Inhibition of COX1 assessed as TBX2 production in human whole blood).
Type: functional, tissue-based

Prostaglandin G/H synthase 1 (Homo sapiens, UniProt P23219), sequence (P23219 whole entry): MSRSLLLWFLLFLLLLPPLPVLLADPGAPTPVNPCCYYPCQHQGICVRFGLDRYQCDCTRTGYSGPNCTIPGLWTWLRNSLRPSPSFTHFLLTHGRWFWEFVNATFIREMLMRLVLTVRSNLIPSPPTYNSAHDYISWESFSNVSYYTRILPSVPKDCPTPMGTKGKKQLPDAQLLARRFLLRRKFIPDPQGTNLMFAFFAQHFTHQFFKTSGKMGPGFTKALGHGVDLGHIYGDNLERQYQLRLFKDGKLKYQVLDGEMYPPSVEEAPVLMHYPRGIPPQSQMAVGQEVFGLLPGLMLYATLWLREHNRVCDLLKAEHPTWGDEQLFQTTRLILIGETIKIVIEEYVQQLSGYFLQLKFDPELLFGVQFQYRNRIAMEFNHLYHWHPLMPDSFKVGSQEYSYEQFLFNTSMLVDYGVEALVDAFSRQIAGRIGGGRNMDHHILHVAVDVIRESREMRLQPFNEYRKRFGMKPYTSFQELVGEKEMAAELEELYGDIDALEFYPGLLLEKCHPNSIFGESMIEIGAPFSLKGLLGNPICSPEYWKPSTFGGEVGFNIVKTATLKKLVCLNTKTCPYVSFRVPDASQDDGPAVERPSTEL

Point of comparison: `NS(=O)(=O)c1ccc(/N=N/c2ccc(O)c(C(=O)O)c2)cc1` [SALAZOSULFAMIDE], IC50 31.6 µM. Against it:
- COc1ccc(/N=N/c2ccc(S(N)(=O)=O)cc2)cc1O — 2.1-fold higher, 66.4 µM
- CC(C)c1ccc(NC(=O)Oc2ccc(/N=N/c3ccc(S(N)(=O)=O)cc3)cc2OC(=O)Nc2ccc(C(C)C)cc2)cc1 — within 1.5-fold, 26.3 µM
- NS(=O)(=O)c1ccc(/N=N/c2ccc(O)c(Cl)c2)cc1 — within 1.5-fold, 33.3 µM
- NS(=O)(=O)c1ccc(/N=N/c2ccc(O)c(O)c2)cc1 — 1.9-fold higher, 60 µM
- COc1cc(/N=N/c2ccc(S(N)(=O)=O)cc2)ccc1O — higher, > 100 µM
- COc1ccc(/N=N/c2ccc(S(N)(=O)=O)cc2)cc1 — higher, > 100 µM
- CN(C)c1ccc(/N=N/c2ccc(S(N)(=O)=O)cc2)cc1 — higher, > 100 µM
- CSc1cc(N)ccc1/N=N/c1ccc(S(N)(=O)=O)cc1 — within 1.5-fold, 23.3 µM
- NS(=O)(=O)c1ccc(/N=N/c2ccc(OC(=O)Nc3ccccc3)c(OC(=O)Nc3ccccc3)c2)cc1 — within 1.5-fold, 35.1 µM
- NS(=O)(=O)c1ccc(/N=N/c2ccc(O)cc2)cc1 — higher, > 100 µM
- COc1ccc(/N=N/c2ccc(S(N)(=O)=O)cc2)cc1OC — 2-fold higher, 61.7 µM

The compounds below were run against T1, Prostaglandin G/H synthase 1 (Ovis aries, UniProt P05979).
T1 sequence (P05979 whole entry): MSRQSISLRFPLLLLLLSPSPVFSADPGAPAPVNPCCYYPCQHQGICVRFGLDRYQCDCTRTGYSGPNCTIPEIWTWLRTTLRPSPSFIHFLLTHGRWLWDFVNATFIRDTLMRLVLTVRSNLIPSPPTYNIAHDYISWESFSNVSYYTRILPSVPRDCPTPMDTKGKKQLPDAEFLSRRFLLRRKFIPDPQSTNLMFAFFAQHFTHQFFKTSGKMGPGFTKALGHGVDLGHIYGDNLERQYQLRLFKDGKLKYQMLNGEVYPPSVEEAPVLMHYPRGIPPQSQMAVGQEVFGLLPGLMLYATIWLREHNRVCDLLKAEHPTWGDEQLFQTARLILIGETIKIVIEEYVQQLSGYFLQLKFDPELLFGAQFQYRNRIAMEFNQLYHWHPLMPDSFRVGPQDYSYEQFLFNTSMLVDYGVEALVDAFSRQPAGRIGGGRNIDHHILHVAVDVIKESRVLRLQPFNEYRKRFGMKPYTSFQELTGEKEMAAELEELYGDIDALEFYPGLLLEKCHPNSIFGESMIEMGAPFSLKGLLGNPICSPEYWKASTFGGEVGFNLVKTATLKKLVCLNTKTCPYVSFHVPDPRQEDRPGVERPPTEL

Point of comparison: `CSc1cc(N)ccc1/N=N/c1ccc(S(N)(=O)=O)cc1`, IC50 34.1 µM. Against it:
- Oc1ccc(/C=C/c2cc(O)cc(O)c2)cc1 [RESVERATROL] — 90-fold lower, 0.38 µM
- NS(=O)(=O)c1ccc(/N=N/c2ccc(O)c(C(=O)O)c2)cc1 [SALAZOSULFAMIDE] — within 1.5-fold, 29.3 µM
- COc1ccc(/N=N/c2ccc(S(N)(=O)=O)cc2)cc1OC — higher, > 100 µM
